Data as given in publication PMC10224994, “Dual synergistic inhibition of COX and LOX by potential chemicals from Indian daily spices investigated through detailed computational studies” (Scientific Reports, 2023).
Like-named read-outs stand apart in the source and are kept apart here.

Key:
Format in all cases: biochemical
COX-1 (ovine) = molecular target: T1, COX-1 (ovine) (Ovis aries, UniProt P05979); experiment: In vitro COX-1 inhibition assay (EIA kit)
T1 construct: purchased Cayman Chemical
T1 sequence (P05979 25-600): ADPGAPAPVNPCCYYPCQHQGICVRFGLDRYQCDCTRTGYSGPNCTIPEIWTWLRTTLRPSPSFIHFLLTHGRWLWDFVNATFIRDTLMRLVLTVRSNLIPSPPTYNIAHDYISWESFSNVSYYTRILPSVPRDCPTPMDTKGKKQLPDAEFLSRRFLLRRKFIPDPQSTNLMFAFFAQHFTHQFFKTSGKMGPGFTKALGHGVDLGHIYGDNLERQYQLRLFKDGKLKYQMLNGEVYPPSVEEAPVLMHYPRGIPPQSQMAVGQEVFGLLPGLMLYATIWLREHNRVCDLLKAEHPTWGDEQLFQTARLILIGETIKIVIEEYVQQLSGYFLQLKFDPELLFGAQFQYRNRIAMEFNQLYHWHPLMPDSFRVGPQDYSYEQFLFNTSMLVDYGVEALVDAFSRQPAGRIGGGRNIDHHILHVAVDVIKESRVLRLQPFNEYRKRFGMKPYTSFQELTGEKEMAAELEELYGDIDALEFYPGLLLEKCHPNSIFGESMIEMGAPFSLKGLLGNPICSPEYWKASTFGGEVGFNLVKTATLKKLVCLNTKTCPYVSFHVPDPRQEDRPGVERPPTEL
Experimental: (§1) The inhibitory activity was measured and reported as IC50 value (µM). Data are expressed as IC50 ± SEM for triplicate studies.
(§2) Colorimetric enzyme immunoassay (EIA) was used to assess the inhibitory potential of the test compounds against COX-1, COX-2, and 5-LOX enzymes.

[1] = molecular target: T2, COX-2 (human recombinant) (Homo sapiens, UniProt P35354); experiment: In vitro COX-2 inhibition assay (EIA kit); settings: mean of three replicates ± SEM
T2 construct: purchased Cayman Chemical
T2 sequence (P35354 18-604): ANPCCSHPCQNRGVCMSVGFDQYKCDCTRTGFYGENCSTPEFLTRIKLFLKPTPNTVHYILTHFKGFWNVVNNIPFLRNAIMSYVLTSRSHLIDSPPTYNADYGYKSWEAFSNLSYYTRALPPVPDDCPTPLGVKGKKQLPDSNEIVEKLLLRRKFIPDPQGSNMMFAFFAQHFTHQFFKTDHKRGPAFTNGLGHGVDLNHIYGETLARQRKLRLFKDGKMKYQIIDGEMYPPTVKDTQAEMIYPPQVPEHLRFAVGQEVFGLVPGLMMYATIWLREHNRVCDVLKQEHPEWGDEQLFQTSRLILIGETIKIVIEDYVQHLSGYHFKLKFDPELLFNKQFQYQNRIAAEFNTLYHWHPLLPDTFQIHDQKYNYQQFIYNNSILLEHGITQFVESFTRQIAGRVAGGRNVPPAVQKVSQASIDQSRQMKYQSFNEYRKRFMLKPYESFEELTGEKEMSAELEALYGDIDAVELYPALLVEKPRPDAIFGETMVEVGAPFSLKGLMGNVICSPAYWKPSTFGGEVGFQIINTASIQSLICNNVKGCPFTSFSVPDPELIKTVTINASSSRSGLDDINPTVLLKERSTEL
Experimental: as §1, §2

5-LOX enzyme = molecular target: T3, 5-LOX enzyme (Homo sapiens, UniProt P09917); experiment: In vitro 5-LOX inhibition assay (Human Lipoxygenase Inhibitor screening kit); settings: mean of three replicates ± SEM
T3 construct: purchased Cayman Chemical
T3 sequence (P09917 1-674): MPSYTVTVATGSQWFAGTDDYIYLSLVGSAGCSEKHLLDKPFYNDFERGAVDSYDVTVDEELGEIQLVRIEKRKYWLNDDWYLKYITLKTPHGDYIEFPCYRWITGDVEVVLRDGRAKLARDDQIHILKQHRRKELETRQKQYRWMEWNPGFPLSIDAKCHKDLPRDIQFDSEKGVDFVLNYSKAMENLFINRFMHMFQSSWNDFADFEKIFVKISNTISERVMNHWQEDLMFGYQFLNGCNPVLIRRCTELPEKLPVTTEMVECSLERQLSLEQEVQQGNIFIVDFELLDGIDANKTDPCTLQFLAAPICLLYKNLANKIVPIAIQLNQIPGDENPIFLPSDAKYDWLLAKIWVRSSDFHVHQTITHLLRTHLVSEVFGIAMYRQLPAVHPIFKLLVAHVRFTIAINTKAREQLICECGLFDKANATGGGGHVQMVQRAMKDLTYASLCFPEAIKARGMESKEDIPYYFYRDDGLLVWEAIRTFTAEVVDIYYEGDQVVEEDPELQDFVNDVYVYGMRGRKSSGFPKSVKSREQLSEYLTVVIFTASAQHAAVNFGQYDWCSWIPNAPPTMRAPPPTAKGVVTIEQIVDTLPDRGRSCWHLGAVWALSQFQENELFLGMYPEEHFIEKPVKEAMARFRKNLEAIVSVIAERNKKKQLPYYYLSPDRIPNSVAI
Experimental: The ability of the test compounds to inhibit the 5-LOX enzyme was evaluated using the Human Lipoxygenase Inhibitor screening assay (EIA) kit (Cayman Chemical). The IC50 values were measured in µM according to the manufacturer’s instructions and reported method[63]–[65]. Data are expressed as IC50 ± SEM for triplicate studies.
as §2

IC50 (COX-1 (ovine); mean of three replicates ± SEM, read-out: IC50 data COX-1) [µM] | SMILES | IC50 (COX-1 (ovine)) [µM] | IC50 [1] [µM] | IC50 (5-LOX enzyme) [µM]
– | COc1cc(/C=C/C(=O)CC(=O)/C=C/c2ccc(O)c(OC)c2)ccc1O [Curcumin, (1E,6E)-1,7-bis(4-hydroxy-3-methoxyphenyl)hepta-1,6-diene-3,5-dione] | 18.6 ± 0.44 | – | –
– | COc1cc(CNC(=O)CCCC/C=C/C(C)C)ccc1O [Capsaicin, (E)-N-(4-hydroxy-3-methoxybenzyl)-8-methylnon-6-enamide] | 24.4 ± 0.62 | 28.3 ± 0.55 | 36.4 ± 0.39
27.1 ± 0.82 | CCCCC[C@H](O)CC(=O)CCc1ccc(O)c(OC)c1 [Gingerol, (S)-5-hydroxy-1-(4-hydroxy-3-methoxyphenyl)decan-3-one] | – | 32.82 ± 0.24 | 42.65 ± 0.17
